In publication PMC6584500, “Small-molecule targeting of MUSASHI RNA-binding activity in acute myeloid leukemia” (Nature Communications, 2019):
Like-named read-outs stand apart in the source and are kept apart here.

Key:
[1] = molecular target: T1, GST-MSI2 (full-length human MSI2) (Homo sapiens, UniProt Q96DH6, R100A); assay: microscale thermophoresis; type: binding
T1 construct: full-length, N-terminal GST-Flag tag kept (pGEX6P3), expressed in E. coli BL21(DE3)

[2] = molecular target: T2, GST-MSI2 (full-length human MSI2) (Homo sapiens, UniProt Q96DH6, K22A); assay: microscale thermophoresis; type: binding
T2 construct: full-length, N-terminal GST-Flag tag kept (pGEX6P3), expressed in E. coli BL21(DE3)
T2 sequence (Q96DH6 whole entry K22A): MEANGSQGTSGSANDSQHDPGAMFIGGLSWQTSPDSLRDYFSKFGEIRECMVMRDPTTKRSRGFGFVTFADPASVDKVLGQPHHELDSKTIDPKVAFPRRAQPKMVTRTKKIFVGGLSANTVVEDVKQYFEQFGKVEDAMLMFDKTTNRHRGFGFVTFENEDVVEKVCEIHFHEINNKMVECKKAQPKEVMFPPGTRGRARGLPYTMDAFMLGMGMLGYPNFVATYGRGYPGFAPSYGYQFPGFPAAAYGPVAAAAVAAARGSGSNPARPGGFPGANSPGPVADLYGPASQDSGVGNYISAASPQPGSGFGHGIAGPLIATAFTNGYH

GST-SRSF2 = molecular target: T3, GST-SRSF2 (Homo sapiens, UniProt Q01130); assay: microscale thermophoresis; type: binding
T3 construct: commercial GST-tagged recombinant protein
T3 sequence (Q01130 2-221): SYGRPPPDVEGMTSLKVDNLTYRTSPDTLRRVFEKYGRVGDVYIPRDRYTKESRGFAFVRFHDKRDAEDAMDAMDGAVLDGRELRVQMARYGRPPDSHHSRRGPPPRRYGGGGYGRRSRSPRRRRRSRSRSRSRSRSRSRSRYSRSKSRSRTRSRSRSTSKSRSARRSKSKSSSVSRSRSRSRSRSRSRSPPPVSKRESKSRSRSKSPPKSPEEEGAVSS

MSI2 RRM1 [3] = molecular target: T4, MSI2 RRM1 (Homo sapiens, UniProt Q96DH6); assay: microscale thermophoresis; type: binding; settings: NT647-labelled protein, pH 7.4, RT
T4 construct: RNA-recognition motif 1 only (nucleotides 64-270 of NM_138962.2 as printed); GST-RRM1 made in BL21(DE3); for NMR His6-SUMO fusion with tag cleaved
T4 sequence (Q96DH6 22-104): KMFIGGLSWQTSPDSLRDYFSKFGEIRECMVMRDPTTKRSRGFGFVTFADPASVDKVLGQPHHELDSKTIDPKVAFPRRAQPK

[4] = molecular target: T5, GST-MSI2 (full-length human MSI2) (Homo sapiens, UniProt Q96DH6); assay: fluorescence polarization, RNA-binding inhibition
T5 construct: full-length, N-terminal GST-Flag tag kept (pGEX6P3), expressed in E. coli BL21(DE3)
T5 sequence (Q96DH6 whole entry): as the sequence (Q96DH6 whole entry K22A) above, with A22K counted along it

[5] = molecular target: T6, GST-MSI2 (full-length human MSI2) (Homo sapiens, UniProt Q96DH6, F97A); assay: microscale thermophoresis; type: binding
T6 construct: full-length, N-terminal GST-Flag tag kept (pGEX6P3), expressed in E. coli BL21(DE3)
T6 sequence (Q96DH6 whole entry F97A): as the sequence (Q96DH6 whole entry K22A) above, with A22K, F97A counted along it

GST-SYNCRIP = molecular target: T7, GST-SYNCRIP (Homo sapiens, UniProt O60506); assay: microscale thermophoresis; type: binding
T7 construct: N-terminal GST-Flag tag kept (pGEX6P3), expressed in E. coli BL21(DE3)
T7 sequence (O60506 1-623): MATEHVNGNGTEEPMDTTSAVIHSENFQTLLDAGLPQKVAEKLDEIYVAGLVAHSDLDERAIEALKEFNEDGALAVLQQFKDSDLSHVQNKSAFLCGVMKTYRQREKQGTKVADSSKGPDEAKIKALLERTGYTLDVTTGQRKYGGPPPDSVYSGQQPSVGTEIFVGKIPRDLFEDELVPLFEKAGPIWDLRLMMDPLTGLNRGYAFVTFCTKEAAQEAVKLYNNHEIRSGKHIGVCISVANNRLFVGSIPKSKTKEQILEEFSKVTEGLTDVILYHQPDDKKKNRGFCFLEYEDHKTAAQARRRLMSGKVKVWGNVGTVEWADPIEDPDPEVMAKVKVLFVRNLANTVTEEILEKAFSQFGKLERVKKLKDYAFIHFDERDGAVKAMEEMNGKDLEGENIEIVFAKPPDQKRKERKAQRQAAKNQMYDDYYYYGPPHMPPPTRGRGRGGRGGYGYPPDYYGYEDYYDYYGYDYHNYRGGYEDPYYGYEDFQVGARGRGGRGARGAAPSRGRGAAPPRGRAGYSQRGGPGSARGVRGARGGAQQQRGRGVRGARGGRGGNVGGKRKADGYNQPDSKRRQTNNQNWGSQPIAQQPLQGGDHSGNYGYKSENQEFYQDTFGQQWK

[6] = molecular target: T8, GST-MSI2 (full-length human MSI2) (Homo sapiens, UniProt Q96DH6, F66A/F97A/R100A); assay: microscale thermophoresis; settings: NT647-labelled protein, 50 mM HEPES, 100 mM NaCl, 0.05% Tween-20, pH 7.4, RT; no binding
T8 construct: full-length, N-terminal GST-Flag tag kept (pGEX6P3), expressed in E. coli BL21(DE3)
T8 sequence (Q96DH6 whole entry F66A/F97A/R100A): as the sequence (Q96DH6 whole entry K22A) above, with A22K, F66A, F97A, R100A counted along it

[7] = molecular target: T9, GST-MSI2 (full-length human MSI2) (Homo sapiens, UniProt Q96DH6, F66A); assay: microscale thermophoresis; type: binding
T9 construct: full-length, N-terminal GST-Flag tag kept (pGEX6P3), expressed in E. coli BL21(DE3)
T9 sequence (Q96DH6 whole entry F66A): as the sequence (Q96DH6 whole entry K22A) above, with A22K, F66A counted along it

bovine serum ALBUMIN = molecular target: T10, bovine serum ALBUMIN (Bos taurus, UniProt P02769); assay: microscale thermophoresis; type: binding
T10 construct: gene ALB
T10 sequence (P02769 25-607): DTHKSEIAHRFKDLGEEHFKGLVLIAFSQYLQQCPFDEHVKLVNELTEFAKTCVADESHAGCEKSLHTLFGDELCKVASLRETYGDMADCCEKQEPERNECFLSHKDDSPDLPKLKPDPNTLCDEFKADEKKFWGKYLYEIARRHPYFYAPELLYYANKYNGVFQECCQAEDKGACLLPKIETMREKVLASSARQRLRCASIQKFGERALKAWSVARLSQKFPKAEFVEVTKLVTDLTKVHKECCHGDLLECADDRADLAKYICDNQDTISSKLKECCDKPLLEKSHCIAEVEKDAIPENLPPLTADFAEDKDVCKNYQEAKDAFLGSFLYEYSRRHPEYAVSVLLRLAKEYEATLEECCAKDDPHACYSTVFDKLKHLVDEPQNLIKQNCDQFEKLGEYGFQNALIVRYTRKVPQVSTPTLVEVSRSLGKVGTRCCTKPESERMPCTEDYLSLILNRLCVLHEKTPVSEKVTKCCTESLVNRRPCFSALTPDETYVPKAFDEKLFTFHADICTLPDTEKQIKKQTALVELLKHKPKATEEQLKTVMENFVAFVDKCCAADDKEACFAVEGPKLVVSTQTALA

[8] = molecular target: T5, GST-MSI2 (full-length human MSI2); assay: microscale thermophoresis; type: binding
MSI2 RRM1 [9] = molecular target: T4, MSI2 RRM1; assay: NMR chemical shift perturbation; type: binding; settings: 15N-labelled RRM1, tag removed, 20 mM MES, 150 mM NaCl, pH 6.0, 5 °C
[10] = molecular target: T5, GST-MSI2 (full-length human MSI2); assay: fluorescence polarization, RNA-binding inhibition; type: biochemical; settings: Cy3-C9-rGUAGUAGU RNA oligo, 384-well; no inhibition
[11] = molecular target: T5, GST-MSI2 (full-length human MSI2); assay: fluorescence polarization, RNA-binding inhibition; type: biochemical
MSI2 R100A = MSI2 R100A (Homo sapiens, UniProt Q96DH6 1-328, R100A); assay: MST; MST: 50 mM HEPES, 100 mM NaCl, 0.05% Tween-20, pH 7.4, RT; EMSA: 10 mM HEPES, 20 mM KCl (+10 mM KCl), 1 mM MgCl2, 1 mM DTT, 5% glycerol, 100 ug/mL tRNA, 40 nM RNA, RT; settings: protein: recombinant; tags: GST, Flag; single strand
Chain of MSI2 R100A (Q96DH6 whole entry R100A): as the sequence (Q96DH6 whole entry K22A) above, with A22K, R100A counted along it

MSI2 WT = MSI2 WT (Homo sapiens, UniProt Q96DH6 1-328); assay: as above; settings: protein: recombinant; tags: GST, Flag; single strand
Chain of MSI2 WT (Q96DH6 whole entry): as the sequence (Q96DH6 whole entry K22A) above, with A22K counted along it

MSI2 K22A = MSI2 K22A (Homo sapiens, UniProt Q96DH6 1-328, K22A); assay: as above; settings: protein: recombinant; tags: GST, Flag; single strand
Chain of MSI2 K22A (Q96DH6 whole entry K22A): as the sequence (Q96DH6 whole entry K22A) above

MSI2 F66A = MSI2 F66A (Homo sapiens, UniProt Q96DH6 1-328, F66A); assay: as above; settings: protein: recombinant; tags: GST, Flag; single strand
Chain of MSI2 F66A (Q96DH6 whole entry F66A): as the sequence (Q96DH6 whole entry K22A) above, with A22K, F66A counted along it

MSI2 F97A = MSI2 F97A (Homo sapiens, UniProt Q96DH6 1-328, F97A); assay: as above; settings: protein: recombinant; tags: GST, Flag; single strand
Chain of MSI2 F97A (Q96DH6 whole entry F97A): as the sequence (Q96DH6 whole entry K22A) above, with A22K, F97A counted along it

T1 sequence (Q96DH6 whole entry R100A): as the sequence (Q96DH6 whole entry K22A) above, with A22K, R100A counted along it

**Q.** For Cc1cc2nc3c(=O)[nH]c(=O)nc-3n(C)c2cc1C=O [Ro, Ro 08–2750], which Kd [1] is on record?
**A.** Its Kd is 148 ± 65 µM.

**Q.** What about the Kd [2] of the same molecule?
**A.** The Kd was over 200 µM.

**Q.** What about the Kd (GST-SRSF2) of the same molecule?
**A.** The Kd was 190 ± 62 µM.

**Q.** What about the Kd (MSI2 RRM1 [3]) of the same molecule?
**A.** The Kd was 24.3 ± 4 µM.

**Q.** And the IC50 [4]?
**A.** The IC50 was 2700 ± 400 nM.

**Q.** And the Kd [5]?
**A.** The Kd was 69.5 ± 14.7 µM.

**Q.** What about the Kd (GST-SYNCRIP) of the same molecule?
**A.** Its Kd is 236 ± 167 µM.

**Q.** What about the microscale thermophoresis [6] of the same molecule?
**A.** The microscale thermophoresis was “The triple mutant (F66A/F97A/R100A) was incapable of binding to Ro”.

**Q.** And the Kd [7]?
**A.** Its Kd is over 200 µM.

**Q.** What about the Kd (bovine serum ALBUMIN) of the same molecule?
**A.** The Kd was over 500 µM.

**Q.** And the Kd [8]?
**A.** The Kd was 12.3 ± 0.5 µM.

**Q.** What about the “NMR chemical shift perturbation” value (MSI2 RRM1 [9]) of the same molecule?
**A.** Its value is “observed three main regions with structural changes by titrating MSI2 with Ro”.

**Q.** Which “fluorescence polarization, RNA-binding inhibition” value [10] does the source give for CC(=O)Nc1ccc2nc3c(=O)n(C)c(=O)n(C)c3nc2c1 [Ro-NGF] here?
**A.** The value was “Ro-NGF failing to inhibit RNA-binding activity”.

**Q.** What about the Kd ([8]; NT647-labelled protein, 50 mM HEPES, 100 mM NaCl, 0.05% Tween-20, pH 7.4, RT, no interaction detected up to 500 μM) of the same molecule?
**A.** The Kd was over 500 µM.

**Q.** What does the source list for Cc1cc2nc3c(=O)[nH]c(=O)nc-3n(C)c2cc1CO [Ro-OH]?
**A.** IC50 [11]: 25 ± 8 µM; Kd [8]: 302 ± 119 µM

B1: 15-nt MSI RNA oligo (ssRNA)
RNA: GUAGUAGUAGUAGUA
**Q.** Which results are given for B1?
**A.** Kd (MSI2 R100A): 6.5 ± 0.9 nM; Kd (MSI2 WT): 8.8 ± 0.9 nM; Kd (MSI2 K22A): 6.4 ± 0.6 nM; Kd (MSI2 F66A): 6.2 ± 0.6 nM; Kd (MSI2 F97A): 6.6 ± 1 nM
